Experimental data: patent publication US12187728B2 (Raze Therapeutics, Inc., priority 2015, dated 2025)

Biological target: T1, Human MTHFD2 (Homo sapiens, UniProt P13995)
T1 construct: residues 36-350 in Uniport ID P13995; His6 (N); made in house; host or cells: E. coli
T1 sequence (P13995 36-350): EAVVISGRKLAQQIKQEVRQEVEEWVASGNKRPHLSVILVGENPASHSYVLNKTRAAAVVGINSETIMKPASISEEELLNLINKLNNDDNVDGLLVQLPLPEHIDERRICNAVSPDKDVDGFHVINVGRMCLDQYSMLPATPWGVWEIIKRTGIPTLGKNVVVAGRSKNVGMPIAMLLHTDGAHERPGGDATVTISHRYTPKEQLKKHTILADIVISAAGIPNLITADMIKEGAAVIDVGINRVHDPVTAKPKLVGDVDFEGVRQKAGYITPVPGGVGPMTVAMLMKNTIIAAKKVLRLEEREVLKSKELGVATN
Test: MTHFD2 Activity Assay (dehydrogenase activity, diaphorase/resazurin coupled fluorescence)
Type: biochemical
Settings: inhibitory activity (IC50 and/or binding constant); 0.2 nM MTHFD2, 11 concentrations
Method in brief: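 Steps: compound + 0.2 nM enzyme, 15 min, pH 8.0 Hepes buffer; add 70 μM CH2-THF, 1 mM NAD+, 100 μM resazurin, diaphorase; 30 min; quench with EDTA; read fluorescence. Data normalized to DMSO (100%) and no-enzyme (0%) wells.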

IC50, 10 to 1000 nM:
Cn1c(Nc2ccc(CO)cc2)nc2c1c(=O)n(Cc1cc3c(Cl)cccc3[nH]1)c(=O)n2C [Example 432, 1-((4-chloro-1H-indol-2-yl)methyl)-8-(4-(hydroxymethyl)phenylamino)-3,7-dimethyl-1H-purine-2,6(3H,7H)-dione]
COc1nc2c(c(=O)n(Cc3cc4cccc(Cl)c4n3C)c(=O)n2C)n1C [Example 433, 1-[(7-chloro-1-methyl-indol-2-yl)methyl]-8-methoxy-3,7-dimethyl-purine-2,6-dione]
CCC(N)c1nc2c(c(=O)n(Cc3cc4c(Cl)cccc4[nH]3)c(=O)n2C)n1C (stereo not shown) [Example 434, 8-(1-aminopropyl)-1-[(4-chloro-1H-indol-2-yl)methyl]-3,7-dimethyl-purine-2,6-dione]
CC(C)C(N)c1nc2c(c(=O)n(Cc3cc4c(Cl)cccc4[nH]3)c(=O)n2C)n1C (stereo not shown) [Example 437, 8-(1-amino-2-methyl-propyl)-1-[(4-chloro-1H-indol-2-yl)methyl]-3,7-dimethyl-purine-2,6-dione]
CNC(C)c1nc2c(c(=O)n(Cc3cc4c(Cl)cccc4[nH]3)c(=O)n2C)n1C (stereo not shown) [Example 438, 1-[(4-chloro-1H-indol-2-yl)methyl]-3,7-dimethyl-8-[1-(methylamino)ethyl]purine-2,6-dione]
Cn1c(N[C@H]2CCC[C@H]2N)nc2c1c(=O)n(Cc1cc3c(Cl)cccc3[nH]1)c(=O)n2C [Example 439, 8-((1S,2R)-2-aminocyclopentylamino)-1-((4-chloro-1H-indol-2-yl)methyl)-3,7-dimethyl-1H-purine-2,6(3H,7H)-dione]
Cn1c(Nc2ccnc(CNC(=O)CN)n2)nc2c1c(=O)n(Cc1cc3c(Cl)cccc3[nH]1)c(=O)n2C [Example 440, 2-amino-N-((4-(1((4-chloro-1H-indol-2-yl)methyl)-3,7-dimethyl-2,6-dioxo-2,3,6,7-tetrahydro-1H-purin-8-ylamino)pyrimidin-2-yl)methyl)acetamide]
CCn1c(=O)n(Cc2cc3c(Cl)cccc3[nH]2)c(=O)c2c1nc(C(C)N)n2C (stereo not shown) [Example 441, 8-(1-aminoethyl)-1-((4-chloro-1H-indol-2-yl)methyl)-3-ethyl-7-methyl-1H-purine-2,6(3H,7H)-dione]
Cn1c(C(N)CC2CC2)nc2c1c(=O)n(Cc1cc3c(Cl)cccc3[nH]1)c(=O)n2C (stereo not shown) [Example 442]
Cn1c(C(N)C2CCC2)nc2c1c(=O)n(Cc1cc3c(Cl)cccc3[nH]1)c(=O)n2C (stereo not shown) [Example 443, 8-[amino(cyclobutyl)methyl]-1-[(4-chloro-1H-indol-2-yl)methyl]-3,7-dimethyl-purine-2,6-dione]
Cn1c(C(N)C2CC2)nc2c1c(=O)n(Cc1cc3c(Cl)cccc3[nH]1)c(=O)n2C (stereo not shown) [Example 444, 8-[amino(cyclopropyl)methyl]-1-[(4-chloro-1H-indol-2-yl)methyl]-3,7-dimethyl-purine-2,6-dione]
Cn1c(C(N)c2cccnc2)nc2c1c(=O)n(Cc1cc3c(Cl)cccc3[nH]1)c(=O)n2C (stereo not shown) [Example 445, 8-[amino(3-pyridyl)methyl]-1-[(4-chloro-1H-indol-2-yl)methyl]-3,7-dimethyl-purine-2,6-dione]
Cn1c(C(N)C2CCCCC2)nc2c1c(=O)n(Cc1cc3c(Cl)cccc3[nH]1)c(=O)n2C (stereo not shown) [Example 446, 8-[amino(cyclohexyl)methyl]-1-[(4-chloro-1H-indol-2-yl)methyl]-3,7-dimethyl-purine-2,6-dione]
Cn1c([C@H](N)Cc2ccncc2)nc2c1c(=O)n(Cc1cc3c(Cl)cccc3[nH]1)c(=O)n2C [Example 447, (R)-8-(1-amino-2-(pyridin-4-yl)ethyl)-1-((4-chloro-1H-indol-2-yl)methyl)-3,7-dimethyl-1H-purine-2,6(3H,7H)-dione]
Cc1cccc2cc(Cn3c(=O)c4c(nc(C(C)N)n4C)n(C)c3=O)ccc12 (stereo not shown) [Example 448, 8-(1-aminoethyl)-3,7-dimethyl-1-((5-methylnaphthalen-2-yl)methyl)-1H-purine-2,6(3H,7H)-dione]
Cn1c([C@@H](N)Cc2ccncc2)nc2c1c(=O)n(Cc1cc3c(Cl)cccc3[nH]1)c(=O)n2C [Example 449, (S)-8-(1-amino-2-(pyridin-4-yl)ethyl)-1-((4-chloro-1H-indol-2-yl)methyl)-3,7-dimethyl-1H-purine-2,6(3H,7H)-dione]
Cn1c(C(N)Cc2ccccc2)nc2c1c(=O)n(Cc1cc3c(Cl)cccc3[nH]1)c(=O)n2C (stereo not shown) [Example 450, 8-(1-amino-2-phenylethyl)-1-((4-chloro-1H-indol-2-yl)methyl)-3,7-dimethyl-1H-purine-2,6(3H,7H)-dione]
CC(=O)NCc1nccc(Nc2nc3c(c(=O)n(Cc4cc5c(Cl)cccc5[nH]4)c(=O)n3C)n2C)n1 [Example 451, N-((4-(1-((4-chloro-1H-indol-2-yl)methyl)-3,7-dimethyl-2,6-dioxo-2,3,6,7-tetrahydro-1H-purin-8-ylamino)pyrimidin-2-yl)methyl)acetamide]
CC(N)c1nc2c(c(=O)n(Cc3ccc4c(C5CC5)cccc4c3)c(=O)n2C)n1C (stereo not shown) [Example 452, 8-(1-aminoethyl)-1-((5-cyclopropylnaphthalen-2-yl)methyl)-3,7-dimethyl-1H-purine-2,6(3H,7H)-dione]
Cn1c(C2CNCCO2)nc2c1c(=O)n(Cc1cc3c(Cl)cccc3[nH]1)c(=O)n2C (stereo not shown) [Example 453, 1-[(4-chloro-1H-indol-2-yl)methyl]-3,7-dimethyl-8-morpholin-2-yl-purine-2,6-dione]
Cn1c(C(N)C2CCOCC2)nc2c1c(=O)n(Cc1cc3c(Cl)cccc3[nH]1)c(=O)n2C (stereo not shown) [Example 454, 8-[amino(tetrahydropyran-4-yl)methyl]-1-[(4-chloro-1H-indol-2-yl)methyl]-3,7-dimethyl-purine-2,6-dione]
Cn1c(C(N)C2CCOCC2)nc2c1c(=O)n(Cc1[nH]c3cccc(Cl)c3c1Cl)c(=O)n2C (stereo not shown) [Example 455, 8-[amino(tetrahydropyran-4-yl)methyl]-1-[(3,4-dichloro-1H-indol-2-yl)methyl]-3,7-dimethyl-purine-2,6-dione]
CC(N)c1nc2c(c(=O)n(Cc3[nH]c4cccc(Cl)c4c3Cl)c(=O)n2C)n1C (stereo not shown) [Example 456, 8-(1-aminoethyl)-1-[(3,4-dichloro-1H-indol-2-yl)methyl]-3,7-dimethyl-purine-2,6-dione]
CC(c1nc2c(c(=O)n(Cc3cc4c(Cl)cccc4[nH]3)c(=O)n2C)n1C)N(C)C (stereo not shown) [Example 457, 1-[(4-chloro-1H-indol-2-yl)methyl]-8-[1-(dimethylamino)ethyl]-3,7-dimethyl-purine-2,6-dione]
Cn1c(C(N)CO)nc2c1c(=O)n(Cc1cc3c(Cl)cccc3[nH]1)c(=O)n2C (stereo not shown) [Example 458, 8-(1-amino-2-hydroxy-ethyl)-1-[(4-chloro-1H-indol-2-yl)methyl]-3,7-dimethyl-purine-2,6-dione]
CCn1c(=O)n(Cc2ccc3c(C)cccc3c2)c(=O)c2c1nc(C(C)N)n2C (stereo not shown) [Example 459, 8-(1-aminoethyl)-3-ethyl-7-methyl-1-((5-methylnaphthalen-2-yl)methyl)-1H-purine-2,6(3H,7H)-dione]
Cn1c(Nc2ccncc2)nc2c1c(=O)n(Cc1cc3cnccc3[nH]1)c(=O)n2C [Example 460, 1-((1H-pyrrolo[3,2-c]pyridin-2-yl)methyl)-3,7-dimethyl-8-(pyridin-4-ylamino)-1H-purine-2,6(3H,7H)-dione]
Cn1c(C(N)c2ccncc2)nc2c1c(=O)n(Cc1cc3c(Cl)cccc3[nH]1)c(=O)n2C (stereo not shown) [Example 461, 8-(amino(pyridin-4-yl)methyl)-1-((4-chloro-1H-indol-2-yl)methyl)-3,7-dimethyl-1H-purine-2,6(3H,7H)-dione]
Cn1c(Nc2ccnc(CNC(N)=O)n2)nc2c1c(=O)n(Cc1cc3c(Cl)cccc3[nH]1)c(=O)n2C [Example 462, 1-((4-(1-((4-chloro-1H-indol-2-yl)methyl)-3,7-dimethyl-2,6-dioxo-2,3,6,7-tetrahydro-1H-purin-8-ylamino)pyrimidin-2-yl)methyl)urea]
CCc1cccc2cc(Cn3c(=O)c4c(nc(C(C)N)n4C)n(C)c3=O)ccc12 (stereo not shown) [Example 463, 8-(1-aminoethyl)-1-((5-ethylnaphthalen-2-yl)methyl)-3,7-dimethyl-1H-purine-2,6(3H,7H)-dione]
Cn1c(C(N)C2CCCC2)nc2c1c(=O)n(Cc1cc3c(Cl)cccc3[nH]1)c(=O)n2C (stereo not shown) [Example 464, 8-(amino(cyclopentyl)methyl)-1-((4-chloro-1H-indol-2-yl)methyl)-3,7-dimethyl-3,7-dihydro-1H-purine-2,6-dione]
